Data reported in patent US20240299593A1, “SYSTEMS AND METHODS FOR GENERATION OF HYPERPOLARIZED MATERIALS” (NVISION IMAGING TECHNOLOGIES GMBH, priority 2021, published 2024).
Structures can show the parent of a compound that is named as a salt. Where two headings read alike, the source gives them in different places.

What was measured:
[1] = SABRE catalyst in acetone extraction study (proton NMR of both phases); assay type: physicochemical; settings: 1 ml Acetone-d6, 6 ml MTBE, 1 ml D2O
[2] = assay type: physicochemical; settings: for extraction efficiency (output/input acetone concentration in water): organic wash:aqueous 4:1; for extraction efficiency, comparison in words: with and without pyruvate in solution
[3] = ICH toxicity limits, cited from earlier work; for Limits: residual solvent concentration in carrier; for Permissible Daily Exposure: residual solvent
[4] = Liquid-liquid purification system, Example 1 (samples of phases analyzed)
Method: A system was prepared comprising a first vessel, a second vessel fluidly connected to the first vessel, and a third vessel fluidly connected to the second vessel. The vessels and the fluid path were covered by a defined magnetic field provided by solenoids to prevent undesired hyperpolarisation loss during the processing of a solution through the system.
The mixture was bubbled with nitrogen gas, and 1.0 mL of base (400 mM NaOD in D2O) was injected into Vessel 1 to cleave the pyruvate ester into sodium pyruvate and the corresponding unbonded sidearm.
The solution in Vessel 1 was then subjected to a first washing step. 20 mL of organic washing solvent (e.g., diethyl ether or tert-butyl methyl ether) were injected into the solution, and then agitated using nitrogen gas bubbling. The mixture was then allowed to settle for about 10 seconds until a clear phase separation between the aqueous phase (lower phase) and the organic phase (upper phase) had formed.
The aqueous phase from Vessel 1 was pumped into Vessel 2, which had been prefilled with 20 mL of the same organic washing solvent (e.g., diethyl ether or tert-butyl methyl ether). The mixture was again agitated using nitrogen gas bubbling, and allowed to settle for about 10 seconds until a clear phase separation between the aqueous phase (lower phase) and the organic phase (upper phase) had formed. […]

With IrIMes(COD) PF6 the “concentration in the aqueous phase after washing” value [1] was “lower in the aqueous phase after washing” and the “observability in NMR spectrum of the phases” value [1] was “observable only in one of the phases and not in the other”.
In the case of COC(C)(C)C [tert-Butylmethyl ether], the “extraction efficiency (output/input acetone concentration in water)” value ([2]; 2000 mM acetone, No Pyruvate) is reported as 0.33, the “extraction efficiency (output/input acetone concentration in water)” value ([2]; 2000 mM acetone, With Pyruvate) is reported as 0.27 and the “extraction efficiency (output/input acetone concentration in water)” value ([2]; 9000 mM acetone, No Pyruvate) is reported as 0.24. For the same molecule, the “extraction efficiency (output/input acetone concentration in water)” value ([2]; 9000 mM acetone, With Pyruvate) was 0.23, the “extraction efficiency, comparison in words” value [2] was “effective extraction efficiency” and the Limits [3] was 5000 ppm. The “Permissible Daily Exposure” value [3] was 50 mg/day.
For CC(=O)CC(C)C [Methylisobutyl ketone], the Limits [3] is given as 5000 ppm and the “Permissible Daily Exposure” value [3] is given as 50 mg/day.
For CCO [Ethanol], the Limits [3] is given as 5000 ppm and the “Permissible Daily Exposure” value [3] is given as 50 mg/day.
In the case of Xylene, the Limits [3] is listed as 2170 ppm and the “Permissible Daily Exposure” value [3] is listed as 21.7 mg/day.
For COCCOC [1,2-Dimethoxyethane], the Limits [3] is listed as 100 ppm and the “Permissible Daily Exposure” value [3] is listed as 1.0 mg/day.
For COC(C)=O [Methyl acetate], the Limits [3] is given as 5000 ppm and the “Permissible Daily Exposure” value [3] is given as 50 mg/day.
For ClCCCl [1,2-Dichloroethane], the Limits [3] is listed as 5 ppm.
In the case of CCOC=O [Ethyl formate], the Limits [3] is listed as 5000 ppm and the “Permissible Daily Exposure” value [3] is listed as 50 mg/day.
In the case of CCCCOC(C)=O [Butyl acetate], the Limits [3] is given as 5000 ppm and the “Permissible Daily Exposure” value [3] is given as 50 mg/day.
For CC(Cl)(Cl)Cl [1,1,1-Trichloroethane], the Limits [3] is listed as 1500 ppm.
For CC1CCCCC1 [Methylcyclohexane], the Limits [3] is listed as 1180 ppm and the “Permissible Daily Exposure” value [3] is listed as 11.8 mg/day.
For C[S+](C)[O-] [Dimethyl sulfoxide], the Limits [3] is given as 5000 ppm and the “Permissible Daily Exposure” value [3] is given as 50 mg/day.
In the case of CN(C)C=O [N,N-Dimethylformamide], the Limits [3] is given as 880 ppm.
In the case of CC#N [Acetonitrile], the Limits [3] is listed as 410 ppm and the “Permissible Daily Exposure” value [3] is listed as 4.1 mg/day.
For NC=O [Formamide], the Limits [3] is listed as 220 ppm and the “Permissible Daily Exposure” value [3] is listed as 2.2 mg/day.
For CC(=O)O [Acetic acid], the Limits [3] is listed as 5000 ppm.
For C1CCCCC1 [Cyclohexane], the Limits [3] is given as 3880 ppm and the “Permissible Daily Exposure” value [3] is given as 38.8 mg/day.
For ClC(Cl)(Cl)Cl [Carbon tetrachloride], the Limits [3] is listed as 4 ppm.
In the case of CC(=O)C(=O)[O-].[Na+] [sodium pyruvate], the pH ([4]; Vessel 1, after hydrolysis and phosphate buffer, acetone/D2O) is reported as 6-9 and the pH ([4]; Vessel 3, final samples) is reported as 6-9.
In the case of CC(C)=O [Acetone], the Limits [3] is given as 5000 ppm, the “Permissible Daily Exposure” value [3] is given as 50 mg/day and the “concentration in the aqueous phase after washing” value [1] is given as “lower in the aqueous phase after washing”.
For c1ccc2c(c1)CCCC2 [Tetralin], the Limits [3] is given as 100 ppm and the “Permissible Daily Exposure” value [3] is given as 1.0 mg/day.
With ClCCl [Dichloromethane] the “extraction efficiency (output/input acetone concentration in water)” value ([2]; 2000 mM acetone, With Pyruvate) was 0.04, the “extraction efficiency (output/input acetone concentration in water)” value ([2]; 9000 mM acetone, No Pyruvate) was 0.07 and the “extraction efficiency (output/input acetone concentration in water)” value ([2]; 9000 mM acetone, With Pyruvate) was 0.06. The “extraction efficiency, comparison in words” value [2] was “best extraction efficiency”, the Limits [3] was 600 ppm and the “Permissible Daily Exposure” value [3] was 6.0 mg/day.
For CCOCC [Diethyl ether], the “extraction efficiency (output/input acetone concentration in water)” value ([2]; 9000 mM acetone, No Pyruvate) was 0.29 and the “extraction efficiency, comparison in words” value [2] was “effective extraction efficiency”.
In the case of CCCOC(C)=O [Propyl acetate], the Limits [3] is given as 5000 ppm and the “Permissible Daily Exposure” value [3] is given as 50 mg/day.
In the case of C=C(Cl)Cl [1,1-Dichloroethene], the Limits [3] is listed as 8 ppm.
For COc1ccccc1 [Anisole], the Limits [3] is given as 5000 ppm and the “Permissible Daily Exposure” value [3] is given as 50 mg/day.
In the case of CN1CCCC1=O [N-Methylpyrrolidone], the Limits [3] is listed as 530 ppm and the “Permissible Daily Exposure” value [3] is listed as 15.3 mg/day.
In the case of CCCCCO [1-Pentanol], the Limits [3] is given as 5000 ppm and the “Permissible Daily Exposure” value [3] is given as 50 mg/day.
For CCCCC(C)=O [Methylbutyl ketone], the Limits [3] is given as 50 ppm and the “Permissible Daily Exposure” value [3] is given as 0.5 mg/day.
In the case of CCCCCCC [Heptane], the Limits [3] is given as 5000 ppm and the “Permissible Daily Exposure” value [3] is given as 50 mg/day.
In the case of CCCCCC [Hexane], the Limits [3] is given as 290 ppm and the “Permissible Daily Exposure” value [3] is given as 2.9 mg/day.
For ClC=C(Cl)Cl [1,1,2-Trichloroethene], the Limits [3] is listed as 80 ppm and the “Permissible Daily Exposure” value [3] is listed as 0.8 mg/day.
In the case of CCOCCO [2-Ethoxyethanol], the Limits [3] is given as 160 ppm and the “Permissible Daily Exposure” value [3] is given as 1.6 mg/day.
